Measured values taken from publication PMC10593608, “The catalytic role of glutathione transferases in heterologous anthocyanin biosynthesis” (Nature Catalysis, 2023).

Columns and labels:
PtGSTF8 = molecular target: T1, PtGSTF8 (Populus trichocarpa, UniProt B9MWW0); test: X-ray crystal structure, […] Å; format: binding; settings: ternary complex with GSH; H-site; substrate analogue
T1 construct: gene POPTR_017G138800; full length, expressed in E. coli from pET-28b-based pANT35, GSTrap purified, apo (GSH removed with DTT)
T1 sequence (B9MWW0 1-214): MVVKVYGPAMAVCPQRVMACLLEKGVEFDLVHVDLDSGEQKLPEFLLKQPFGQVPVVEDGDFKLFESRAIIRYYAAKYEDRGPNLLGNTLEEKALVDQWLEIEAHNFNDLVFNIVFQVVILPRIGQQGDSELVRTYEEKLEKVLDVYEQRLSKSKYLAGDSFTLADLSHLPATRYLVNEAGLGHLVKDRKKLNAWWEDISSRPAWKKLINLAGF

VvGST2 = molecular target: T2, VvGST2 (Vitis vinifera, UniProt A0T2X7); test: GSH-transferase assay, A340nm, clarified E. coli lysate; format: biochemical; settings: 1 mM CDNB, 1 mM GSH, 50 mM Tris pH 7.5, 30 °C
T2 construct: gene GST2; expressed in E. coli from pET-28b-based plasmid, clarified lysate
T2 sequence (A0T2X7 1-214): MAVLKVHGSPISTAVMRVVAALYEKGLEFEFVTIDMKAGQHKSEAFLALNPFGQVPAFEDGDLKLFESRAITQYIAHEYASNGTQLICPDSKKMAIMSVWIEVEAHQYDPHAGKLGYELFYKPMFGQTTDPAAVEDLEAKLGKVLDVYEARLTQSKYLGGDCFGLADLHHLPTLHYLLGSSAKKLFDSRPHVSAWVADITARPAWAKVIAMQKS

PhAN9 = molecular target: T3, PhAN9 (Petunia x hybrida, UniProt O24261); test: as above; format: biochemical; settings: 1 mM CDNB, 1 mM GSH, 50 mM Tris pH 7.5, 30 °C
T3 construct: expressed in E. coli from pET-28b-based plasmid, clarified lysate
T3 sequence (O24261 1-232): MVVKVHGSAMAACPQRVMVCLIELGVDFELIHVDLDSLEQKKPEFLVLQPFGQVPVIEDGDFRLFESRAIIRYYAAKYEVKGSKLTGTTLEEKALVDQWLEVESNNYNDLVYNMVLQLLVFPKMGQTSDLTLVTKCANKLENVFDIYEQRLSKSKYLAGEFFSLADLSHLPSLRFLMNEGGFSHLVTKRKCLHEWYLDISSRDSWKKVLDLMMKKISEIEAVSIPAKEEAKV

ZmBZ2 = molecular target: T4, ZmBZ2 (Zea mays, UniProt P50472); test: as above; format: biochemical; settings: 1 mM CDNB, 1 mM GSH, 50 mM Tris pH 7.5, 30 °C
T4 construct: gene BZ2; expressed in E. coli from pET-28b-based plasmid, clarified lysate
T4 sequence (P50472 1-236): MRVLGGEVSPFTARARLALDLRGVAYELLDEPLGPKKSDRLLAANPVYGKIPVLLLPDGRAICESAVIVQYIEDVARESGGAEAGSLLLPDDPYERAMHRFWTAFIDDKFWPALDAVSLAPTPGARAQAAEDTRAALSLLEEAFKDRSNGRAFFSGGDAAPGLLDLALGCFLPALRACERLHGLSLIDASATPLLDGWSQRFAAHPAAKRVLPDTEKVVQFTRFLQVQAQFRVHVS

AtTT19 [1] = molecular target: T5, AtTT19 (Arabidopsis thaliana, UniProt Q9FE46); test: as above; format: biochemical; settings: 1 mM CDNB, 1 mM GSH, 50 mM Tris pH 7.5, 30 °C
T5 construct: gene GSTF12; expressed in E. coli from pET-28b-based plasmid, clarified lysate
T5 sequence (Q9FE46 1-214): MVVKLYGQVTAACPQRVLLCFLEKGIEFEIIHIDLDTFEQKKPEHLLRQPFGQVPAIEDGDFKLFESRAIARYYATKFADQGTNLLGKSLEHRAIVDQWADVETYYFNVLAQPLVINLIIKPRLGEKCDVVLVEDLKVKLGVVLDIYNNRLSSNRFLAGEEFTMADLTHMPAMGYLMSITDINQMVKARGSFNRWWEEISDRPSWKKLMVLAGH

AtGSTF2 = molecular target: T6, AtGSTF2 (Arabidopsis thaliana, UniProt P46422); test: as above; format: biochemical; settings: 1 mM CDNB, 1 mM GSH, 50 mM Tris pH 7.5, 30 °C
T6 construct: gene GSTF2; expressed in E. coli from pET-28b-based plasmid, clarified lysate
T6 sequence (P46422 1-212): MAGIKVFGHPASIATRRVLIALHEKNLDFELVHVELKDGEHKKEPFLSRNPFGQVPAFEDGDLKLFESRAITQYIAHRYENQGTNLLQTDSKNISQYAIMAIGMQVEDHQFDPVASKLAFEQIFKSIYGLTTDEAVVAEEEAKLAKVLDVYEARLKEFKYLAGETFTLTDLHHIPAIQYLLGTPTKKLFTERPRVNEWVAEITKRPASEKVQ

AtTT19 [2] = molecular target: T5, AtTT19; test: cyanidin formation by clarified E. coli lysate expressing the GST; format: biochemical; settings: 20 μM GSH, 100 mM MOPSO pH 6.2, 30 °C
[3] = substrate: Oc1cc(O)c2c(c1)O[C@H](c1ccc(O)c(O)c1)C(O)(O)[C@H]2O; test: cyanidin formation at A580nm, 96-well plate, Michaelis-Menten; format: biochemical, Populus trichocarpa; settings: GSH cofactor, 100 mM MOPSO pH 6.2, 30 °C, ascorbate, Fe(II), ultrafiltered substrate, apparent

Molecule: Oc1cc(O)c2c(c1)O[C@@H](c1ccc(O)c(O)c1)[C@H](O)C2 [compound 12, (−)-catechin]
- X-ray crystal structure, 1.09 Å (PtGSTF8): crystal structure of PtGSTF8 as a ternary complex with GSH and the substrate analogue (−)-catechin

Molecule: O=[N+]([O-])c1ccc(Cl)c([N+](=O)[O-])c1 [compound 5, 1-chloro-2,4-dinitrobenzene]
- GSH-transferase assay, A340nm, clarified E. coli lysate (VvGST2): all investigated GSTs were confirmed to be solubly and functionally produced
- GSH-transferase assay, A340nm, clarified E. coli lysate (PhAN9): all investigated GSTs were confirmed to be solubly and functionally produced
- GSH-transferase assay, A340nm, clarified E. coli lysate (ZmBZ2): all investigated GSTs were confirmed to be solubly and functionally produced
- GSH-transferase assay, A340nm, clarified E. coli lysate (AtTT19 [1]): all investigated GSTs were confirmed to be solubly and functionally produced
- GSH-transferase assay, A340nm, clarified E. coli lysate (AtGSTF2): all investigated GSTs were confirmed to be solubly and functionally produced

Molecule: Oc1cc(O)c2c(c1)O[C@H](c1ccc(O)c(O)c1)C(O)(O)[C@H]2O [compound 4]
- cyanidin formation by clarified E. coli lysate expressing the GST (AtTT19 [2]): arGSTs from maize (ZmBZ2), arabidopsis (AtTT19) and grapevine (VvGST4)

B1: PtGSTF8 (Populus trichocarpa) (protein)
chain: T1 sequence (B9MWW0 1-214)
notes: full length, expressed in E. coli from pET-28b-based pANT35, GSTrap purified, apo (GSH removed with DTT)
- Km [3]: 147 ± 8 µM
- kcat [3]: 0.118 s⁻¹
